“And” between values parts separate entries of the source, which are not always exact repeats. Identical values can stand only once.
What was measured:
Aromatase = target: T1, Aromatase (Homo sapiens, UniProt P11511); assay: Binding affinity for Cytochrome P450 19A1
T1 sequence (P11511 whole entry): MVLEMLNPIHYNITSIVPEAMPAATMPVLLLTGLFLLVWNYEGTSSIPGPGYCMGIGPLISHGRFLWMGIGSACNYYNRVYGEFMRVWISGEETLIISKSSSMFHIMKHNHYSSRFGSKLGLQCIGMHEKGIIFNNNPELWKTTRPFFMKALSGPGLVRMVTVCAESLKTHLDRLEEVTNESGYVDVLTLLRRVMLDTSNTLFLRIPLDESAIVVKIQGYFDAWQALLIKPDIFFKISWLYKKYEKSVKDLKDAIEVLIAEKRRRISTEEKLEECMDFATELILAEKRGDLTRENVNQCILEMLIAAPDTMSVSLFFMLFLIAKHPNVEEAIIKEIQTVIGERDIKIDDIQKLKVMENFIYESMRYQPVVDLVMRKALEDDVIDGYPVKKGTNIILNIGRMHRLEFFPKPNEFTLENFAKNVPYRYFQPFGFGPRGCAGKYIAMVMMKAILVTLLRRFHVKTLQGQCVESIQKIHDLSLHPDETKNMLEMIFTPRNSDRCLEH

Cricetinae gen. sp. [1] = assay: Percentage lowering of the total serum cholesterol in male hamsters at a dose of 100 […] orally administered for 3 days; assay type: functional, Cricetulus griseus
Cricetinae gen. sp. [2] = assay: Percentage lowering of the total serum cholesterol in male hamsters at a dose of 30 mg/dL orally administered for 3 days; assay type: functional, Cricetulus griseus
Cricetinae gen. sp. [3] = assay: Effect on total serum cholesterol in male hamsters at a dose of 10 mg/kg orally administered for 3 days; assay type: functional, Cricetulus griseus; conditions: route oral
Cricetinae gen. sp. [4] = assay: Effect on total serum cholesterol in male hamsters at a dose of 100 mg/kg orally administered for 3 days; assay type: functional, Cricetulus griseus; conditions: route oral
Cricetinae gen. sp. [5] = assay: Effect on total serum cholesterol in male hamsters at a dose of 30 mg/kg orally administered for 3 days; assay type: functional, Cricetulus griseus; conditions: route oral
Cricetinae gen. sp. [6] = assay: Percentage lowering of the total serum cholesterol in male hamsters at a dose of 10 […] orally administered for 3 days; assay type: functional, Cricetulus griseus
Homo sapiens = species on record: Homo sapiens; assay: Inhibition of cellular cholesterol biosynthesis using human fibroblasts in tissue culture; assay type: functional, organism-based
[7] = target: T2, Cytochrome P450 11B1, mitochondrial (Homo sapiens, UniProt P15538); assay: Binding affinity for corticoid 11-beta-hydroxylase
T2 sequence (P15538 whole entry): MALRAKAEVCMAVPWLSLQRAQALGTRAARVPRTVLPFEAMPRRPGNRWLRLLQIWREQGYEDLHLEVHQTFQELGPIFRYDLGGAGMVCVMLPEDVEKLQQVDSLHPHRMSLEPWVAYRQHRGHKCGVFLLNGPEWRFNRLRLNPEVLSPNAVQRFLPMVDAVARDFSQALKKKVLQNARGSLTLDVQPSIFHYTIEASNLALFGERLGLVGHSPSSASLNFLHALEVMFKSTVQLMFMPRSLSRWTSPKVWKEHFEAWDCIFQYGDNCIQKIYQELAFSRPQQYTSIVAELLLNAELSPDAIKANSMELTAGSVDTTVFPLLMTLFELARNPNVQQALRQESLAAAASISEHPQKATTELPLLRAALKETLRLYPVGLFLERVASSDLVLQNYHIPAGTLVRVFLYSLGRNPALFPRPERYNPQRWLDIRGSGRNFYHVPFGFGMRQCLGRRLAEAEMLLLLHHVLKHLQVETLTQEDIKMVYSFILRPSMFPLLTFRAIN

[8] = target: T3, Steroid 17-alpha-hydroxylase/17,20 lyase (Homo sapiens, UniProt P05093); assay: Binding affinity for progesterone 17-alpha,20-lyase
T3 sequence (P05093 whole entry): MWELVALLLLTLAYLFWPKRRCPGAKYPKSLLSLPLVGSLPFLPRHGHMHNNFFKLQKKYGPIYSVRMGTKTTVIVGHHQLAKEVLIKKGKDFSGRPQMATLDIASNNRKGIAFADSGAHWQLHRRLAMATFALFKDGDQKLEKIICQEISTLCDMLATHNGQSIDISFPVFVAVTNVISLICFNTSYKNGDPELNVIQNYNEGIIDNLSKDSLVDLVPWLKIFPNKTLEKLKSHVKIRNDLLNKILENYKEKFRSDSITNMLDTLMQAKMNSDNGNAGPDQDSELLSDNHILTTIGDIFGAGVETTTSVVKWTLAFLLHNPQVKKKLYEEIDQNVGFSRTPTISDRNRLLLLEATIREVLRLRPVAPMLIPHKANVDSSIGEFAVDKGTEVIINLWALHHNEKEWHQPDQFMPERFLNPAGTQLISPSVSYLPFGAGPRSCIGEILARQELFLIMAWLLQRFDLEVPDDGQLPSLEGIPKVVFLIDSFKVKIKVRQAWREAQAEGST

Cytochrome P450 3A4 = Cytochrome P450 3A4 (Homo sapiens, UniProt P08684); assay: Binding affinity for progesterone 6-beta-hydroxylase of hepatic microsomes; assay type: ADME
Cytochrome P450 3A4, sequence (P08684 whole entry): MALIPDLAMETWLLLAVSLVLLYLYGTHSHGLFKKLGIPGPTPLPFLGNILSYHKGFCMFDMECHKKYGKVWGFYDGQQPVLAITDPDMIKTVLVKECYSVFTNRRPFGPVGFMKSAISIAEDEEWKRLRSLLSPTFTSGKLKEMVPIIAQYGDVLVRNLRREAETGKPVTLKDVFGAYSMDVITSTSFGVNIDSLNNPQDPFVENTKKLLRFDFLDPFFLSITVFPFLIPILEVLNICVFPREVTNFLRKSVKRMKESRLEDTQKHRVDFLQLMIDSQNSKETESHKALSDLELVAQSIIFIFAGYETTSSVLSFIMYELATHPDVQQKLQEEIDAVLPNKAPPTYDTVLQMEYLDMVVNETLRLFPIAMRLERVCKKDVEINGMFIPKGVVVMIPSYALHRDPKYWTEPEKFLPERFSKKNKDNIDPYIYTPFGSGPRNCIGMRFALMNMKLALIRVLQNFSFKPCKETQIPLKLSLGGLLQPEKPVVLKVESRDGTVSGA

[9] = target: T3, Steroid 17-alpha-hydroxylase/17,20 lyase; assay: Binding affinity for […] 17-alpha-hydroxylase
Cricetinae gen. sp. [10] = assay: Effect on total serum cholesterol in male hamsters at a dose of 10 mg/kg orally administered for 14 days; assay type: functional, Cricetulus griseus; conditions: route oral
Cricetinae gen. sp. [11] = assay: Percentage lowering of the total serum cholesterol in male hamsters at a dose of 150 […] orally administered for 14 days; assay type: functional, Cricetulus griseus
Cricetinae gen. sp. [12] = assay: Percentage lowering of the total serum cholesterol in male hamsters at a dose of 25 mg/dL orally administered for 14 days; assay type: functional, Cricetulus griseus
Cricetinae gen. sp. [13] = assay: Percentage lowering of the total serum cholesterol in male hamsters at a dose of 5 mg/dL orally administered for 14 days; assay type: functional, Cricetulus griseus
Cricetinae gen. sp. [14] = assay: Effect on total serum cholesterol in male hamsters at a dose of 100 mg/kg orally administered for 14 days; assay type: functional, Cricetulus griseus; conditions: route oral
Cricetinae gen. sp. [15] = assay: Effect on total serum cholesterol in male hamsters at a dose of 150 mg/kg orally administered for 14 days; assay type: functional, Cricetulus griseus; conditions: route oral
Cricetinae gen. sp. [16] = assay: Effect on total serum cholesterol in male hamsters at a dose of 200 mg/kg orally administered for 14 days; assay type: functional, Cricetulus griseus; conditions: route oral
Cricetinae gen. sp. [17] = assay: Effect on total serum cholesterol in male hamsters at a dose of 25 mg/kg orally administered for 14 days; assay type: functional, Cricetulus griseus; conditions: route oral
Cricetinae gen. sp. [18] = assay: Effect on total serum cholesterol in male hamsters at a dose of 5 mg/kg orally administered for 14 days; assay type: functional, Cricetulus griseus; conditions: route oral
Cricetinae gen. sp. [19] = assay: Effect on total serum cholesterol in male hamsters at a dose of 50 mg/kg orally administered for 14 days; assay type: functional, Cricetulus griseus; conditions: route oral
Cricetinae gen. sp. [20] = assay: Percentage lowering of the total serum cholesterol in male hamsters at a dose of 100 […] orally administered for 14 days; assay type: functional, Cricetulus griseus
Cricetinae gen. sp. [21] = assay: Percentage lowering of the total serum cholesterol in male hamsters at a dose of 200 […] orally administered for 14 days; assay type: functional, Cricetulus griseus
Cricetinae gen. sp. [22] = assay: Percentage lowering of the total serum cholesterol in male hamsters at a dose of 50 mg/dL orally administered for 14 days; assay type: functional, Cricetulus griseus
Cricetinae gen. sp. [23] = assay: Percentage lowering of the total serum cholesterol in male hamsters at a dose of 10 […] orally administered for 14 days; assay type: functional, Cricetulus griseus
Cricetinae gen. sp. [24] = assay: Effect on total serum cholesterol in male hamsters at a dose of 60 mg/kg orally administered for 3 days; assay type: functional, Cricetulus griseus; conditions: route oral
Cricetinae gen. sp. [25] = assay: Percentage lowering of the total serum cholesterol in male hamsters at a dose of 60 […] orally administered for 3 days; assay type: functional, Cricetulus griseus
Cricetinae gen. sp. [26] = assay: Percentage increase of the total serum cholesterol in male hamsters at a dose of 25 […] orally administered for 14 days; assay type: functional, Cricetulus griseus
Cricetinae gen. sp. [27] = assay: Percentage increase of the total serum cholesterol in male hamsters at a dose of 10 […] orally administered for 14 days; assay type: functional, Cricetulus griseus

`Nc1ccc(SC[C@H]2CO[C@@](CCc3ccc(Cl)cc3)(Cn3ccnc3)O2)cc1` showed a Ki (Aromatase) of 13 nM, a Lowering (Cricetinae gen. sp. [1]) of 22% and a Lowering (Cricetinae gen. sp. [2]) of 13%. The TC (Cricetinae gen. sp. [3]) was 105.7 mg/dL, the TC (Cricetinae gen. sp. [4]) was 86 mg/dL and the TC (Cricetinae gen. sp. [5]) was 96.4 mg/dL. The Lowering (Cricetinae gen. sp. [6]) was 5%, the IC50 (Homo sapiens) was 8 nM and the Ki [7] was 15 nM. It also gave a Ki [8] of 54 nM, a Ki (Cytochrome P450 3A4) of 33 nM and a Ki [9] of 109 nM.

With `CC[C@H](C)C(=O)O[C@H]1C[C@@H](C)C=C2C=C[C@H](C)[C@H](CC[C@@H]3C[C@@H](O)CC(=O)O3)[C@H]21` [LOVASTATIN] the TC (Cricetinae gen. sp. [10]) was 102.8 mg/dL, the Lowering (Cricetinae gen. sp. [11]) was 37% and the Lowering (Cricetinae gen. sp. [12]) was 6% and 10%. The Lowering (Cricetinae gen. sp. [13]) was 5%, the TC (Cricetinae gen. sp. [14]) was 94.9 mg/dL and the TC (Cricetinae gen. sp. [15]) was 80.3 mg/dL. The TC (Cricetinae gen. sp. [16]) was 79.5 mg/dL, the TC (Cricetinae gen. sp. [17]; 25 mg/kg) was 111.2 mg/dL and 114 mg/dL and the TC (Cricetinae gen. sp. [18]) was 112.2 mg/dL. The TC (Cricetinae gen. sp. [19]; 50 mg/kg) was 99.4 mg/dL and 102 mg/dL, the Lowering (Cricetinae gen. sp. [20]) was 26% and the Lowering (Cricetinae gen. sp. [21]) was 38%. For the same compound, the Lowering (Cricetinae gen. sp. [22]) was 16% and 19% and the Lowering (Cricetinae gen. sp. [23]) was 13%.

Compound `Nc1ccc(SC[C@H]2CO[C@](CCc3ccc(Cl)cc3)(Cn3ccnc3)O2)cc1` has a TC (Cricetinae gen. sp. [24]) of 85.1 mg/dL and a Lowering (Cricetinae gen. sp. [25]) of 40%.

`Nc1ccc(SC[C@@H]2CO[C@@](CCc3ccc(Cl)cc3)(Cn3ccnc3)O2)cc1` gave a TC (Cricetinae gen. sp. [10]) of 125.2 mg/dL, a TC (Cricetinae gen. sp. [14]) of 113.3 mg/dL and a TC (Cricetinae gen. sp. [17]) of 125.8 mg/dL. It also gave a TC (Cricetinae gen. sp. [19]) of 112.4 mg/dL, a TC (Cricetinae gen. sp. [24]) of 120.4 mg/dL and a Lowering (Cricetinae gen. sp. [20]) of 4%. For the same compound, the Lowering (Cricetinae gen. sp. [22]) was 6%, the Lowering (Cricetinae gen. sp. [25]) was 15% and the Increase (Cricetinae gen. sp. [26]) was 6%. For the same compound, the Increase (Cricetinae gen. sp. [27]) was 6%.

From ChEMBL document CHEMBL1127068, “Selective inhibition of mammalian lanosterol 14 alpha-demethylase: a possible strategy for cholesterol lowering” (J Med Chem, 1993)
